Measurements from patent US4849424A, “Pyrimidine derivatives” (Nissin Shokuhin Kabushiki Kaisha, priority 1986, dated 1989).

Assays:
[1] = system: gastric lesions; assay: HCl-ethanol-induced gastric lesions in rats (cytoprotective effect); format: in vivo, Male Sprague-Dawley rats; conditions: Rattus norvegicus, po; for inhibition in vivo at 10 mg/kg: 10 mg/kg p.o. in 1% CMC, 30 minutes before 150 mM HCl-60% ethanol, 3 rats per group, lesions measured 1 hour later, read-out: Inhibition (inhibitory rate of ulcer length vs control); for ED50: 30 minutes before HCl-ethanol
Experimental: Male Sprague-Dawley rats (body weight: 220-240 g, 7 weeks) were deprived of food but allowed free access to water for 24 hours prior to the experiments. Each control and experimental group consisted of 3 rats. One hundred and fifty mM HCl-60% ethanol (v/v) was given p.o. in a volume of 1 ml/rat. The animals were sacrificed 1 hour later, and the stomach was removed and inflated by injecting 10 ml of 2% formalin to fix the inner and outer layers of the gastric walls. Subsequently, the stomach was incised along the greater curvature and washed gently with ice-cold saline.
Gastric lesions were identified in the grandular portion. The length of lesions was measured in millimeters (mm) under a dissecting microscope with a square grid (×10), and lesion severity was expressed as the total length of lesions per stomach.
Test compound (I) (10 mg/kg), suspended in 1% carboxymethyl cellulose (CMC), or 1% carboxymethyl cellulose for the control was orally administered 30 minutes before HCl-ethanol administration. The ulcer length of the treated group and the control group were compared and the inhibitory rates were calculated.

[2] = Oral acute toxicity (LD50) in rats; conditions: rat, in vivo, 0.3% CMC-Na suspension, 72 hours observation, 10 rats per group, Probit method
Experimental: A 0.3% CMC-Na suspension of a test compound was orally administered to groups of Slc:Wistar/KY rats (male: 90-120 g), each group consisting of 10 rats. […] LD50 values were calculated by the Probit method to be as follows: […]

[3] = system: ulcer; assay: Restraint-immersion stress ulcer in rats (anti-stress ulcer activity); format: in vivo, Male Sprague-Dawley rats; conditions: 32 mg/kg p.o. in 0.1% MC, 5 minutes before restraint-immersion for 7 hours at 22° C.
Experimental: Male Sprague-Dawley rats (body weight: 230-280 g) were placed under restraint in a stress cage after fasting for 15 hours, and immersed vertically in the water bath kept at 22° C. to the level of the xiphoid of the animal. After restraint-immersion for 7 hours the animals were killed, and the stomach from each animal was fixed with formalin.
Each stomach was opened by cutting along the greater curvature, and ulcer area (mm^2) was measured with a stereoscopic microscope. Ulcer indices of the treated group and the control group were compared, and inhibitory rates were calculated. The tested compound, either 4,6-bis(1-pyrazolyl) pyrimidine (32 mg/kg) suspended in 0.1% methylcellulose (MC) or 0.1% methylcellulose (MC) alone, was orally administered 5 minutes before the restraint-immersion.

Compound `CC(C)Oc1cc(-n2cccn2)ncn1` [Example 17, 6-Isopropoxy-4-(1-pyrazolyl)pyrimidine] has an inhibition in vivo at 10 mg/kg [1] of 79.8%.
`CCOc1cc(C)nc(-n2cccn2)n1` [Example 11, 4-Ethoxy-6-methyl-2-(1-pyrazolyl)pyrimidine] gave an inhibition in vivo at 10 mg/kg [1] of 78.3%.
With `COc1cc(C)nc(-n2ccnc2)n1` [Example 7, 2-(1-Imidazolyl)-4-methoxy-6-methylpyrimidine] the inhibition in vivo at 10 mg/kg [1] was 82.6%.
In the case of `COc1nc(C)cc(-n2cncn2)n1` [Example 9, 2-Methoxy-6-methyl-4-(1,2,4-triazol-1-yl)pyrimidine], the inhibition in vivo at 10 mg/kg [1] is reported as 75.7%.
In the case of `COc1cc(-n2cccn2)ncn1` [Example 15, 6-Methoxy-4-(1-pyrazolyl)pyrimidine], the inhibition in vivo at 10 mg/kg [1] is reported as 95.6%.
Compound `COc1cc(C)nc(-n2cccn2)n1` [Example 6, 4-Methoxy-6-methyl-2-(1-pyrazolyl)pyrimidine] has an inhibition in vivo at 10 mg/kg [1] of 87.2%.
In the case of `c1cnn(-c2cc(N3CCCCC3)ncn2)c1` [Example 19, 6-Piperidino-4-(1-pyrazolyl)pyrimidine], the inhibition in vivo at 10 mg/kg [1] is reported as 79.2%.
Work on `c1cnn(-c2cc(-n3cccn3)ncn2)c1` [Example 1, 4,6-Bis(1-pyrazolyl)pyrimidine] yielded an ED50 [1] of 0.72 mg/kg, an inhibition in vivo at 10 mg/kg [1] of 95.6% and an LD50 at 72 h [2] greater than 3000 mg/kg. For the same compound, the “Inhibition (inhibitory rate of ulcer index vs control)” value [3] was 73.6%.
With `CCOc1cc(C)nc(-n2ccnc2)n1` [Example 10, 4-Ethoxy-2-(1-imidazolyl)-6-methylpyrimidine] the inhibition in vivo at 10 mg/kg [1] was 80.7%.
`COc1cc(-n2ccnc2)ncn1` [Example 16, 4-(1-Imidazolyl)-6-methoxypyrimidine] gave an ED50 [1] of 5.6 mg/kg, an inhibition in vivo at 10 mg/kg [1] of 91.3% and an LD50 at 72 h [2] of 400 mg/kg.
In the case of `c1cn(-c2ccnc(-n3ccnc3)n2)cn1` [Example 4, 2,4-Bis(1-imidazolyl)pyrimidine], the inhibition in vivo at 10 mg/kg [1] is reported as 78.2%.
